Read-outs that look alike come from different tables or passages of the source.
Key:
[1] = molecular target: T1, HIF-2α HIS TAG-PASB Domain (Homo sapiens, UniProt Q99814); test: HIF-2α Scintillation Proximity Assay (SPA); assay type: binding; conditions: 100 nM HIF-2α HIS TAG-PASB Domain
T1 construct: 100 nM HIF-2α HIS TAG-PASB Domain
In short: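 IC50 values rest on percent inhibition, where the sample signal is scaled between high and low controls. Wells contain about 100 μL: compound dispensed as 2 μL of DMSO solution, 88 μL protein-probe mix and 10 μL of beads.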

[2] = system: 786-O-Hif-Luc cells; test: Luciferase Assay; assay type: cell-based; conditions: read-out: Luciferase EC50
Experimental: A pool of infected cells were then selected against 2 μg/mL of puromycin (P8833, Sigma) for 10 days followed by limited dilution to select single clones.
Each concentration was tested in triplicate. After about 24 hours, luciferase activity was determined using ONE-Glo Luciferase Assay Reagent (E6110, Promega) following the manufacturer's recommended procedure. EC50 were calculated by using Dotmatics software.

[3] = 150 nM Compound 211 probe, read-out: SPA IC50
[4] = 24 h, 786-O-Hif-Luc cells, about 24 hours
[5] = SPA IC50, 150 nM Compound 211 probe
[6] = 786-O-Hif-Luc cells, about 24 hours

T1 sequence (Q99814 240-350 limits assumed): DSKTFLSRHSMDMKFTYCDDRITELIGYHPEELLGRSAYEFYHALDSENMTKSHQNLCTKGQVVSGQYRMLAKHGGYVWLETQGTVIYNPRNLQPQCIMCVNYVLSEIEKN

COc1cc(F)cc(Oc2ccc3c(c2Br)[C@@H](O)C(F)(F)S3(=O)=O)c1 [Compound 190, (R)-4-Bromo-2,2-difluoro-5-(3-fluoro-5-methoxyphenoxy)-3-hydroxy-2,3-dihydrobenzo[b]thiophene 1,1-dioxide]
IC50 [1, 3]: 57 nM | EC50 [2, 4]: 413 nM

O=S1(=O)c2ccc(Oc3cc(F)cc(Cl)c3)c(Br)c2[C@H](O)C1(F)F [Compound 169, (3S)-4-Bromo-5-(3-chloro-5-fluoro-phenoxy)-2,2-difluoro-1,1-dioxo-3H-benzothiophen-3-ol]
IC50 [1, 5]: 60 nM | EC50 [2, 6]: 172 nM

O=S1(=O)c2ccc(Oc3cncc(Cl)c3)c(Cl)c2[C@@H](O)C1(F)F [Compound 196, (R)-4-Chloro-5-((5-chloropyridin-3-yl)oxy)-2,2-difluoro-3-hydroxy-2,3-dihydrobenzo[b]thiophene 1,1-dioxide]
IC50 [1, 3]: 384 nM | EC50 [2, 4]: 425 nM

CS(=O)(=O)c1ccc(Oc2cc(F)cc(C#N)c2)c2c1[C@H](O)C(F)(Cl)C2 (stereo partly drawn) [Compound 34, 3-(((1S)-2-chloro-2-fluoro-1-hydroxy-7-(methylsulfonyl)-2,3-dihydro-1H-inden-4-yl)oxy)-5-fluorobenzonitrile]
IC50 [1, 3]: 97 nM | EC50 [2, 4]: 100 nM

[2H]C1(O)c2c(ccc(Oc3cc(F)cc(Cl)c3)c2C(F)F)S(=O)(=O)C1(F)F (centres unmarked) [Compound 135, 5-(3-Chloro-5-fluorophenoxy)-4-(difluoromethyl)-2,2-difluoro-3-hydroxy-2,3-dihydrobenzo[b]thiophene 1,1-dioxide-3-d]
IC50 [1, 5]: < 5 nM | EC50 [2, 6]: 10 nM

CS(=O)(=O)c1ccc(Oc2cc(F)cc(C#N)c2)c2c1[C@H](O)C[C@@H]2F [Compound 59, 3-fluoro-5-[(1R,3S)-3-fluoro-1-hydroxy-7-methylsulfonyl-indan-4-yl]oxy-benzonitrile]
IC50 [1, 3]: 230 nM | EC50 [2, 4]: 390 nM

N#Cc1cc(F)cc(Oc2ccc3c(c2C#N)[C@@H](O)CS3(=O)=O)c1 [Compound 180, (R)-5-(3-Cyano-5-fluorophenoxy)-3-hydroxy-2,3-dihydrobenzo[b]thiophene-4-carbonitrile 1,1-dioxide]
IC50 [1, 3]: 12900 nM | EC50 [2, 4]: 400 nM

O=S1(=O)c2ccc(Oc3cncc(Cl)c3)c(C(F)F)c2C(O)C1(F)F (centres unmarked) [Compound 145, 5-((5-Chloropyridin-3-yl)oxy)-4-(difluoromethyl)-2,2-difluoro-3-hydroxy-2,3-dihydrobenzo[b]thiophene 1,1-dioxide]
IC50 [1, 5]: 229 nM | EC50 [2]: 149 nM

Cc1cc(C#N)cc(Oc2ccc3c(c2C(F)F)[C@@H](O)C(F)(F)S3(=O)=O)c1 [Compound 156, (R)-3-((4-(Difluoromethyl)-2,2-difluoro-3-hydroxy-1,1-dioxido-2,3-dihydrobenzo[b]thiophen-5-yl)oxy)-5-methylbenzonitrile]
IC50 [1, 3]: < 5 nM | EC50 [2, 4]: 100 nM

N#Cc1cc(F)cc(Oc2ccc3c(c2F)C(O)C(F)(F)S3(=O)=O)c1 (centres unmarked) [Compound 198, 3-Fluoro-5-((2,2,4-trifluoro-3-hydroxy-1,1-dioxido-2,3-dihydrobenzo[b]thiophen-5-yl)oxy)benzonitrile]
IC50 [1, 3]: 975 nM | EC50 [2, 4]: 882 nM

C#Cc1c(Oc2cc(F)cc(C#N)c2)ccc2c1C(O)C(F)(F)S2(=O)=O (centres unmarked) [Compound 173, 3-((4-Ethynyl-2,2-difluoro-3-hydroxy-1,1-dioxido-2,3-dihydrobenzo[b]thiophen-5-yl)oxy)-5-fluorobenzonitrile]
IC50 [1, 3]: 59 nM | EC50 [2, 4]: 190 nM

CS(=O)(=O)c1ccc(Oc2cncc(Br)c2)c2c1[C@H](O)C(F)(F)C2 [Compound 88, (S)-4-((5-Bromopyridin-3-yl)oxy)-2,2-difluoro-7-(methylsulfonyl)-2,3-dihydro-1H-inden-1-ol]
IC50 [1, 3]: 54 nM | EC50 [2, 4]: 475 nM

CS(=N)(=O)c1ccc(Oc2cc(F)cc(F)c2)c2c1[C@H](O)C(F)(F)C2 (stereo partly drawn) [Compound 10, ((S)-7-(3,5-Difluorophenoxy)-2,2-difluoro-3-hydroxy-2,3-dihydro-1H-inden-4-yl)(imino)(methyl)-λ^6-sulfanone]
IC50 [1, 3]: 177 nM | EC50 [2, 4]: 277 nM

N#Cc1cc(F)cc(Oc2ccc3c(c2C(F)F)C(=O)C(F)(F)S3(=O)=O)c1 [Compound 149, 3-((4-(Difluoromethyl)-2,2-difluoro-1,1-dioxido-3-oxo-2,3-dihydrobenzo[b]thiophen-5-yl)oxy)-5-fluorobenzonitrile]
IC50 [1, 5]: 2400 nM | EC50 [2, 6]: 2790 nM

Cc1c(Oc2cc(F)cc(Cl)c2)ccc2c1C(O)C(F)(F)S2(=O)=O (centres unmarked) [Compound 123, 5-(3-Chloro-5-fluorophenoxy)-2,2-difluoro-3-hydroxy-4-methyl-2,3-dihydrobenzo[b]thiophene 1,1-dioxide]
IC50 [1, 5]: 15 nM | EC50 [2]: 449 nM

O=S1(=O)CC(O)c2c1ccc(Oc1cc(F)cc(Cl)c1)c2C(F)F (centres unmarked) [Compound 125, 5-(3-Chloro-5-fluorophenoxy)-4-(difluoromethyl)-3-hydroxy-2,3-dihydrobenzo[b]thiophene 1,1-dioxide]
IC50 [1, 3]: 100 nM | EC50 [2, 4]: 725 nM

CC1(O)c2c(ccc(Oc3cc(F)cc(C#N)c3)c2C(F)F)S(=O)(=O)C1(F)F (centres unmarked) [Compound 206, 3-((4-(Difluoromethyl)-2,2-difluoro-3-hydroxy-3-methyl-1,1-dioxido-2,3-dihydrobenzo[b]thiophen-5-yl)oxy)-5-fluorobenzonitrile]
IC50 [1, 3]: 200 nM | EC50 [2, 4]: 771 nM

CS(=O)(=O)c1ccc(Oc2cc(F)cc(C#N)c2)c2c1[C@H](O)C(F)(F)[C@@H]2O [Compound 76, 3-[(1S,3R)-2,2-difluoro-1,3-dihydroxy-7-methylsulfonyl-indan-4-yl]oxy-5-fluoro-benzonitrile]
IC50 [1, 3]: 150 nM | EC50 [2, 4]: 631 nM

O=S1(=O)c2ccc(OCC3CC3)c(C(F)F)c2[C@@H](O)C1(F)F [Compound 203, (R)-5-(Cyclopropylmethoxy)-4-(difluoromethyl)-2,2-difluoro-3-hydroxy-2,3-dihydrobenzo[b]thiophene 1,1-dioxide]
IC50 [1, 3]: 1890 nM | EC50 [2, 4]: 1160 nM

N#Cc1c(Oc2cc(F)cc(Cl)c2)ccc2c1[C@@H](O)CS2(=O)=O [Compound 112, (3R)-5-(3-chloro-5-fluoro-phenoxy)-3-hydroxy-1,1-dioxo-2,3-dihydrobenzothiophene-4-carbonitrile]
IC50 [1, 3]: 46.5 nM | EC50 [2, 4]: 226 nM

Cc1cncc(Oc2ccc(S(C)(=O)=O)c3c2CC(F)(F)[C@H]3O)n1 [Compound 11, (S)-2,2-Difluoro-4-((6-methylpyrazin-2-yl)oxy)-7-(methylsulfonyl)-2,3-dihydro-1H-inden-1-ol]
IC50 [1, 3]: < 5 nM | EC50 [2, 4]: 13500 nM

O=S1(=O)CC(O)c2c1ccc(Oc1cc(F)cc(F)c1)c2C(F)F (centres unmarked) [Compound 134, 4-(Difluoromethyl)-5-(3,5-difluorophenoxy)-3-hydroxy-2,3-dihydrobenzo[b]thiophene 1,1-dioxide]
IC50 [1, 3]: 77 nM | EC50 [2, 4]: 718 nM

N#Cc1cc(Oc2ccc3c(c2C(F)F)[C@@H](O)C(F)(F)S3(=O)=O)ccc1F [Compound 201, (R)-5-((4-(Difluoromethyl)-2,2-difluoro-3-hydroxy-1,1-dioxido-2,3-dihydrobenzo[b]thiophen-5-yl)oxy)-2-fluorobenzonitrile]
IC50 [1, 3]: 72 nM | EC50 [2, 4]: 308 nM

N#CN=S1(=O)c2ccc(Oc3cc(F)cc(F)c3)c(C(F)F)c2C(O)C1(F)F (centres unmarked) [Compound 161, N-(4-(Difluoromethyl)-5-(3,5-difluorophenoxy)-2,2-difluoro-3-hydroxy-1-oxido-2,3-dihydro-1λ^4-benzo[b]thiophen-1-ylidene)cyanamide]
IC50 [1, 3]: 20 nM | EC50 [2, 4]: 1500 nM

N#Cc1cccc(Oc2ccc3c(c2Br)[C@@H](O)C(F)(F)S3(=O)=O)c1 [Compound 194, (R)-3-((4-bromo-2,2-difluoro-3-hydroxy-1,1-dioxido-2,3-dihydrobenzo[b]thiophen-5-yl)oxy)benzonitrile]
IC50 [1, 3]: 17 nM | EC50 [2, 4]: 32 nM

N#Cc1c(Oc2cc(F)cc(Cl)c2)ccc2c1C(O)C(F)(F)S2(=O)=O (centres unmarked) [Compound 120, 5-(3-chloro-5-fluorophenoxy)-2,2-difluoro-3-hydroxy-2,3-dihydrobenzo[b]thiophene-4-carbonitrile 1,1-dioxide]
IC50 [1, 5]: 45 nM | EC50 [2]: 4170 nM

C=CCN=S(=O)(c1ccc(Oc2cc(F)cc(C#N)c2)c2c1[C@H](O)C(F)(F)C2)C(F)(F)F (single isomer, unassigned) [Compound 71]
IC50 [1, 3]: 370 nM | EC50 [2, 6]: 1670 nM

N#Cc1c(Oc2cc(F)cc(F)c2)ccc2c1C(O)C(F)S2(=O)=O (centres unmarked) [Compound 154, 5-(3,5-Difluorophenoxy)-2-fluoro-3-hydroxy-2,3-dihydrobenzo[b]thiophene-4-carbonitrile 1,1-dioxide]
IC50 [1, 3]: 1640 nM | EC50 [2, 4]: 793 nM

O=S1(=O)c2ccc(Oc3cccc4sccc34)c(C(F)F)c2C(O)C1(F)F (centres unmarked) [Compound 204, 5-(Benzo[b]thiophen-4-yloxy)-4-(difluoromethyl)-2,2-difluoro-3-hydroxy-2,3-dihydrobenzo[b]thiophene 1,1-dioxide]
IC50 [1, 3]: 11 nM | EC50 [2, 4]: 455 nM

NC1c2cc(Oc3cc(F)cc(Cl)c3)ccc2S(=O)(=O)C1(F)F (centres unmarked) [Compound 122, 3-Amino-5-(3-chloro-5-fluorophenoxy)-2,2-difluoro-2,3-dihydrobenzo[b]thiophene 1,1-dioxide]
IC50 [1, 3]: 200 nM | EC50 [2, 4]: 3720 nM

N#Cc1cc(F)cc(Oc2ccc(S(=O)(=O)C(F)(F)F)c3c2[C@@H](N)C[C@H]3O)c1 (relative stereo) [Compound 43, 3-((cis-3-amino-1-hydroxy-7-((trifluoromethyl)sulfonyl)-2,3-dihydro-1H-inden-4-yl)oxy)-5-fluorobenzonitrile]
IC50 [1, 3]: 5100 nM | EC50 [2, 4]: 5900 nM

Source: US10098878B2, “HIF-2α inhibitors for treating iron overload disorders” (The Board of Regents of the University of Texas System, priority 2014, dated 2018)
